# Data as given in EP0393104B1, “MEASUREMENT OF PGE 2 (PROSTAGLANDIN E 2) LEVELS IN PATIENTS WITH CHRONIC INFLAMMATORY BOWEL DISEASE” (priority 1987, dated 1989).
# Key:
# [1] = tested on: ulcerative colitis and Crohn's colitis; assay: Open one-year dose-escalation study of ADS: efficacy, tolerance and safety; assay type: in vivo, patients; conditions: for patients who experienced a relapse: remaining UC patients
# Source text: Patients fulfilling the following entry criteria were candidates for the study: (a) proven UC or proven CC; (b) relapsing disease (i.e., a relapse within the past six months) or chronic continous disease activity (i.e. absence of remission (definition: see below) for three months or more); (c) refractory to SAZ (i.e., relapsing disease despite maintenance treatment with SAZ 2 g/day or chronic continous disease despite treatment with glucocorticoids and SAZ) or intolerant of SAZ (i.e., allergic to or otherwise intolerant of SAZ).
# The study design was open with an initial dose of ADS 1 g/day (0.5 g b.i.d.), in SAZ intolerant patients. In SAZ refractory patients the initial dose was 2 g/day (1 g b.i.d.). […] In patients on concomitant corticosteroids the dose was gradually tapered and, if possible, the administration was stopped.
# (§1) Aone year treatment period was planned including scheduled visits at two weeks and at two, four, six, eight, ten, and 12 months, in addition to in-between visits, if needed. Before entry and at each visit the clinical disease activity was assessed (see below) and a laboratory screening was done. This included blood haemoglobin, reticulocyte count, erythrocyte sedimentation rate, leucocyte count, leucocyte differential count, platelet count, serum concentrations of Na, K, Ca, albumin, creatinine, urea, alanine aminotransferase, lactate dehydrogenase, alkaline phosphatase, bilirubin, and plasma prothrombin, in addition to urine analysis for protein and glucose and microscopy for erythrocytes, leukocytes, and casts.
# The clinical activity was based on a diary and the objective findings registered by the investigator. To minimize variation among observers each patient was examined on all study days by the same investigator. All days the week preceeding a scheduled visit the patient recorded the number of bowel movements in the diary, in addition to the presence or absence of blood, and graded abdominal pain and general well-being according to W. R. Best, J. M. Becktel, J. W. Singleton, 'Rederived values of the eight coefficients of the Crohn's Disease Activity Index (CDAI)', 1979 Gastroenterology, 77:843-6) for calculation of the Crohn's disease activity index (CDAI). […] Remission in patients with CC was defined as a CDAI <150 and no evidence of inflammation on sigmoidoscopy. […] Due to the open design of the study no further clinical or endoscopic estimations of efficacy were done.
# ulcerative colitis = conditions: human, in vivo, po; cited from earlier work
# PGE2 [2] = assay: Equilibrium in vivo dialysis of faeces with radioimmunoassay of PGE2 (ADS study); set-up: species or system patients; conditions: mean±SD
# Experimental: (§2) Before entry, at the two week's visit, and at the six and 12 months' visits equilibrium in vivo dialysis of faeces as well as equilibrium in vivo dialysis of rectum were done prior to endoscopy of rectum and sigmoid colon with biopsies. ADS was administered in gelatin capsules, each containing 250 mg of the powdered drug without additives.
# (§3) Equilibrium in vivo dialysis of faeces was done as previously described in detail by pooling the contents of five swallowed dialysis bags following their intestinal transit (faecal dialysate).
# (§4) The lower detection limits in serum and in faecal dialysates were 1.0 umol/I and 6.0 umol/l, respectively. Prostaglandin E2 was measured by the radioimmunologic method, referred to above, validated by gas chromatography-mass spectrometry. These measurements were done blindly and independently of the assessment of disease activity and clinicians were unaware of the results until the data had been completed.
# [3] = HPLC of ADS, 5-ASA and Ac-5-ASA in serum; assay type: in vivo, patients; conditions: ulcerative colitis, read-out: Concentrations in serum
# Experimental: as §1, §4
# PGE2 [4] = assay: Equilibrium in vivo dialysis of rectum with radioimmunoassay of PGE2 (ADS study); set-up: species or system patients; conditions: mean±SD
# Experimental: as §2
# Equilibrium in vivo dialysis of rectum was performed after insertion of a 12-cm-long dialysis bag into the emptied rectum as previously described (K. Lauritsen, L.S. Laursen, K. Bukhave, J. Rask-Madsen, "Effects of topical 5-aminosalicylic acid and prednisolone on prostaglandin E2 and leukotriene B4 levels determined by equilibrium in vivo dialysis of rectum in relapsing ulcerative colitis, Gastroenterology 1986;91:837-844). The bag was left for four hours and its contents (rectal dialysate) were analyzed for concentrations of PGE2 (rectal PGEZ).
# as §4
# [5] = HPLC of ADS, 5-ASA and Ac-5-ASA in faecal dialysates (equilibrium in vivo dialysis of faeces); set-up: species or system patients; conditions: for concentration: ulcerative colitis, read-out: Concentrations in faecal dialysates
# Experimental: as §2, §3, §4
smiles,measurement,setting,value
"O=C(O)c1cc(N=Nc2ccc(O)c(C(=O)O)c2)ccc1O [Olsalazine, disodium-azodisalicylate]",withdrawals due to drug intolerance,"[1]; 40 patients, ADS 1-4 g/day up to one year",No patients were withdrawn due to drug intolerance
same,treatment failures,[1]; UC patients intolerant of SAZ,one of eight
same,treatment failures,"[1]; UC patients refractory to SAZ, of 23",12
same,slightly increased levels of alanine aminotransferase or alkaline phosphatase,[1]; in vivo,six cases
same,treatment failures (CDAI <150 without sigmoidoscopic evidence of inflammation never obtained),[1]; patients with CC,Five of the nine
same,treatment failures (clinical and sigmoidoscopic remission never obtained),[1]; patients with UC (n=31),Thirteen patients
same,patients who experienced a relapse,[1]; on 1 g/day,four
same,patients who experienced a relapse,[1]; on 2 g/day,two
same,patients who experienced a relapse,[1]; on 3 g/day,eight
same,patients who experienced a relapse,[1]; on 4 g/day,two
same,loose or watery stools (major adverse effect),ulcerative colitis,10%
same,Fecal PGE2 levels,"PGE2 [2]; Crohn's colitis (n=9), Month 6, Entry 1.76±1.94",0.70±0.68 (0.08-1.81) ng/ml
same,Fecal PGE2 levels,"PGE2 [2]; Crohn's colitis (n=9), Month 12, Entry 1.76±1.94",1.23±2.06 (0.04-5.39) ng/ml
same,Fecal PGE2 levels,"PGE2 [2]; Ulcerative colitis, SAZ intolerant, n=8, Month 6, Entry 1.09±1.18",0.48±0.85 (0.04-2.55) ng/ml
same,Fecal PGE2 levels,"PGE2 [2]; Ulcerative colitis, SAZ intolerant, n=8, Month 12, Entry 1.09±1.18, p<0.05",0.16±0.05 (0.08-0.22) ng/ml
same,Fecal PGE2 levels,"PGE2 [2]; Ulcerative colitis, SAZ refractory, n=23, Month 6, Entry 1.65±1.80, normal range <0.5, p<0.05",0.44±1.03 (0.05-4.72) ng/ml
same,Fecal PGE2 levels,"PGE2 [2]; Ulcerative colitis, SAZ refractory, n=23, Month 12, Entry 1.65±1.80, p<0.05",0.77±1.09 (0.06-3.73) ng/ml
same,concentration,"[3]; Olsalazine dose/day 1 g (n=9), mean±SD of average in each patient",9.2 ± 3.4 µM
same,concentration,"[3]; Olsalazine dose/day 2 g (n=14), mean±SD",16 ± 6.8 µM
same,concentration,"[3]; Olsalazine dose/day 3 g (n=20), mean±SD",22 ± 8.1 µM
same,concentration,"[3]; Olsalazine dose/day 4 g (n=20), mean±SD",25 ± 11 µM
same,Rectal PGE2 levels,"PGE2 [4]; Crohn's colitis (n=9), Month 6, Entry 4.0±5.1",5.0±4.8 (0.4-13.0) ng/ml
same,Rectal PGE2 levels,"PGE2 [4]; Crohn's colitis (n=9), Month 12, Entry 4.0±5.1",3.0±5.7 (0.1-14.6) ng/ml
same,Rectal PGE2 levels,"PGE2 [4]; Ulcerative colitis, SAZ intolerant, n=8, Month 6, Entry 8.5±15.0",5.7±11.9 (0.15-32.6) ng/ml
same,Rectal PGE2 levels,"PGE2 [4]; Ulcerative colitis, SAZ intolerant, n=8, Month 12, Entry 8.5±15.0",1.6±2.0 (0.32-5.3) ng/ml
same,Rectal PGE2 levels,"PGE2 [4]; Ulcerative colitis, SAZ refractory, n=23, Month 6, Entry 16.0±15.3, normal range <0.6, p<0.05",8.1±12.3 (0.05-42.8) ng/ml
same,Rectal PGE2 levels,"PGE2 [4]; Ulcerative colitis, SAZ refractory, n=23, Month 12, Entry 16.0±15.3",13.6±15.4 (0.12-49.0) ng/ml
same,concentration,"[5]; Olsalazine dose/day 1 g (n=7), mean±SD of averages in each patient",100 ± 140 µM
same,concentration,"[5]; Olsalazine dose/day 2 g (n=20), mean±SD",340 ± 480 µM
same,concentration,"[5]; Olsalazine dose/day 3 g (n=14), mean±SD",400 ± 580 µM
same,concentration,"[5]; Olsalazine dose/day 4 g (n=18), mean±SD",270 ± 410 µM
same,"patients in whom the split ratio was below 90%, at least on one occasion",[5]; of all patients,28%
